Converted amounts (≈) assume the structure as drawn.
Experiments:
Assay type in all cases: functional
Pseudomonas aeruginosa [1] = assay: Antimicrobial activity against Pseudomonas aeruginosa isolate 1036 by broth microdilution method
Pseudomonas aeruginosa [2] = assay: Antimicrobial activity against Pseudomonas aeruginosa isolate 944 by broth microdilution method
Pseudomonas aeruginosa [3] = assay: Antimicrobial activity against Pseudomonas aeruginosa isolate 1050 by broth microdilution method
Pseudomonas aeruginosa [4] = assay: Antimicrobial activity against Pseudomonas aeruginosa isolate 878 by broth microdilution method
Pseudomonas aeruginosa [5] = assay: Antimicrobial activity against Pseudomonas aeruginosa isolate 988 by broth microdilution method
Pseudomonas aeruginosa [6] = assay: Antimicrobial activity against Pseudomonas aeruginosa isolate 856 by broth microdilution method
Pseudomonas aeruginosa [7] = assay: Antimicrobial activity against Pseudomonas aeruginosa isolate 927 by broth microdilution method
Pseudomonas aeruginosa [8] = assay: Antimicrobial activity against Pseudomonas aeruginosa isolate 968 by broth microdilution method
Pseudomonas aeruginosa [9] = assay: Antimicrobial activity against Pseudomonas aeruginosa isolate 971 by broth microdilution method
Pseudomonas aeruginosa [10] = assay: Antimicrobial activity against Pseudomonas aeruginosa isolate 821 by broth microdilution method
Pseudomonas aeruginosa [11] = assay: Antimicrobial activity against Pseudomonas aeruginosa isolate 1080 by broth microdilution method
Pseudomonas aeruginosa [12] = assay: Antimicrobial activity against Pseudomonas aeruginosa isolate 1093 by broth microdilution method
Pseudomonas aeruginosa [13] = assay: Antimicrobial activity against Pseudomonas aeruginosa isolate 1060 by broth microdilution method
Pseudomonas aeruginosa [14] = assay: Antimicrobial activity against Pseudomonas aeruginosa isolate 1095 by broth microdilution method
Pseudomonas aeruginosa [15] = assay: Antimicrobial activity against Pseudomonas aeruginosa isolate 22 by broth microdilution method
Pseudomonas aeruginosa [16] = assay: Antimicrobial activity against Pseudomonas aeruginosa isolate 896 by broth microdilution method
Pseudomonas aeruginosa [17] = assay: Antimicrobial activity against Pseudomonas aeruginosa isolate 1006 by broth microdilution method
Pseudomonas aeruginosa [18] = assay: Antimicrobial activity against Pseudomonas aeruginosa isolate 913 by broth microdilution method
Pseudomonas aeruginosa [19] = assay: Antimicrobial activity against Pseudomonas aeruginosa isolate 1036 by broth microdilution method in presence of beta-lactamase inhibitor Tazobactam
Pseudomonas aeruginosa [20] = assay: Antimicrobial activity against Pseudomonas aeruginosa isolate 944 by broth microdilution method in presence of beta-lactamase inhibitor Tazobactam
Pseudomonas aeruginosa [21] = assay: Antimicrobial activity against Pseudomonas aeruginosa isolate 1050 by broth microdilution method in presence of beta-lactamase inhibitor Tazobactam
Pseudomonas aeruginosa [22] = assay: Antimicrobial activity against Pseudomonas aeruginosa isolate 1060 by broth microdilution method in presence of beta-lactamase inhibitor Tazobactam
Pseudomonas aeruginosa [23] = assay: Antimicrobial activity against Pseudomonas aeruginosa isolate 1095 by broth microdilution method in presence of beta-lactamase inhibitor Tazobactam
Pseudomonas aeruginosa [24] = assay: Antimicrobial activity against Pseudomonas aeruginosa isolate 22 by broth microdilution method in presence of beta-lactamase inhibitor Tazobactam
Pseudomonas aeruginosa [25] = assay: Antimicrobial activity against Pseudomonas aeruginosa isolate 878 by broth microdilution method in presence of beta-lactamase inhibitor Tazobactam
Pseudomonas aeruginosa [26] = assay: Antimicrobial activity against Pseudomonas aeruginosa isolate 896 by broth microdilution method in presence of beta-lactamase inhibitor Tazobactam
Pseudomonas aeruginosa [27] = assay: Antimicrobial activity against Pseudomonas aeruginosa isolate 988 by broth microdilution method in presence of beta-lactamase inhibitor Tazobactam
Pseudomonas aeruginosa [28] = assay: Antimicrobial activity against Pseudomonas aeruginosa isolate 1006 by broth microdilution method in presence of beta-lactamase inhibitor Tazobactam
Pseudomonas aeruginosa [29] = assay: Antimicrobial activity against Pseudomonas aeruginosa isolate 856 by broth microdilution method in presence of beta-lactamase inhibitor Tazobactam
Pseudomonas aeruginosa [30] = assay: Antimicrobial activity against Pseudomonas aeruginosa isolate 913 by broth microdilution method in presence of beta-lactamase inhibitor Tazobactam
Pseudomonas aeruginosa [31] = assay: Antimicrobial activity against Pseudomonas aeruginosa isolate 927 by broth microdilution method in presence of beta-lactamase inhibitor Tazobactam
Pseudomonas aeruginosa [32] = assay: Antimicrobial activity against Pseudomonas aeruginosa isolate 968 by broth microdilution method in presence of beta-lactamase inhibitor Tazobactam
Pseudomonas aeruginosa [33] = assay: Antimicrobial activity against Pseudomonas aeruginosa isolate 971 by broth microdilution method in presence of beta-lactamase inhibitor Tazobactam
Pseudomonas aeruginosa [34] = assay: Antimicrobial activity against Pseudomonas aeruginosa isolate 821 by broth microdilution method in presence of beta-lactamase inhibitor Tazobactam
Pseudomonas aeruginosa [35] = assay: Antimicrobial activity against Pseudomonas aeruginosa isolate 1080 by broth microdilution method in presence of beta-lactamase inhibitor Tazobactam
Pseudomonas aeruginosa [36] = assay: Antimicrobial activity against Pseudomonas aeruginosa isolate 1093 by broth microdilution method in presence of beta-lactamase inhibitor Tazobactam

Row | Structure (SMILES) | MIC (Pseudomonas aeruginosa [1]) | MIC (Pseudomonas aeruginosa [2]) | MIC (Pseudomonas aeruginosa [3]) | MIC (Pseudomonas aeruginosa [4]) | MIC (Pseudomonas aeruginosa [5]) | MIC (Pseudomonas aeruginosa [6]) | MIC (Pseudomonas aeruginosa [7]) | MIC (Pseudomonas aeruginosa [8]) | MIC (Pseudomonas aeruginosa [9]) | MIC (Pseudomonas aeruginosa [10]) | MIC (Pseudomonas aeruginosa [11]) | MIC (Pseudomonas aeruginosa [12]) | MIC (Pseudomonas aeruginosa [13]) | MIC (Pseudomonas aeruginosa [14]) | MIC (Pseudomonas aeruginosa [15]) | MIC (Pseudomonas aeruginosa [16]) | MIC (Pseudomonas aeruginosa [17]) | MIC (Pseudomonas aeruginosa [18]) | other results
1 | O=C(O)c1cn(C2CC2)c2cc(N3CCNCC3)c(F)cc2c1=O [CIPROFLOXACIN] | 3 mg/L (≈ 9.05 µM) | 4 mg/L (≈ 12.1 µM) | > 32 mg/L | > 32 mg/L | 4 mg/L (≈ 12.1 µM) | > 32 mg/L | > 32 mg/L | > 32 mg/L | > 32 mg/L | > 32 mg/L | > 32 mg/L | > 32 mg/L | – | – | – | – | – | – | –
2 | CC(C)(O/N=C(\C(=O)N[C@@H]1C(=O)N2C(C(=O)[O-])=C(C[n+]3ccccc3)CS[C@H]12)c1csc(N)n1)C(=O)O [CEFTAZIDIME] | 2 mg/L (≈ 3.66 µM) | 4 mg/L (≈ 7.32 µM) | 3 mg/L (≈ 5.49 µM) | 12 mg/L (≈ 22 µM) | 6 mg/L (≈ 11 µM) | > 256 mg/L | 8 mg/L (≈ 14.6 µM) | 24 mg/L (≈ 43.9 µM) | 48 mg/L (≈ 87.8 µM) | 64 mg/L (≈ 117 µM) | 16 mg/L (≈ 29.3 µM) | 4 mg/L (≈ 7.32 µM) | 2 mg/L (≈ 3.66 µM) | 16 mg/L (≈ 29.3 µM) | 16 mg/L (≈ 29.3 µM) | 12 mg/L (≈ 22 µM) | 4 mg/L (≈ 7.32 µM) | 24 mg/L (≈ 43.9 µM) | –
3 | C[C@@H](O)[C@H]1C(=O)N2C(C(=O)O)=C(S[C@@H]3CN[C@H](C(=O)N(C)C)C3)[C@H](C)[C@H]12 [MEROPENEM] | 4 mg/L (≈ 10.4 µM) | 12 mg/L (≈ 31.3 µM) | ≥ 32 mg/L | ≥ 32 mg/L | 16 mg/L (≈ 41.7 µM) | ≥ 32 mg/L | ≥ 32 mg/L | ≥ 32 mg/L | ≥ 32 mg/L | ≥ 32 mg/L | ≥ 32 mg/L | ≥ 32 mg/L | 4 mg/L (≈ 10.4 µM) | 4 mg/L (≈ 10.4 µM) | 16 mg/L (≈ 41.7 µM) | 12 mg/L (≈ 31.3 µM) | ≥ 32 mg/L | ≥ 32 mg/L | –
4 | CCN1CCN(C(=O)N[C@@H](C(=O)N[C@@H]2C(=O)N3[C@@H]2SC(C)(C)[C@@H]3C(=O)O)c2ccccc2)C(=O)C1=O [PIPERACILLIN] | – | – | – | – | – | – | – | – | – | – | – | – | – | – | – | – | – | – | MIC (Pseudomonas aeruginosa [19]): 3 mg/L; MIC (Pseudomonas aeruginosa [20]): 8 mg/L; MIC (Pseudomonas aeruginosa [21]): 8 mg/L; MIC (Pseudomonas aeruginosa [22]): 4 mg/L; MIC (Pseudomonas aeruginosa [23]): 12 mg/L; MIC (Pseudomonas aeruginosa [24]): 32 mg/L; MIC (Pseudomonas aeruginosa [25]): ≥ 256 mg/L; MIC (Pseudomonas aeruginosa [26]): ≥ 256 mg/L; MIC (Pseudomonas aeruginosa [27]): 64 mg/L; MIC (Pseudomonas aeruginosa [28]): 16 mg/L; MIC (Pseudomonas aeruginosa [29]): ≥ 256 mg/L; MIC (Pseudomonas aeruginosa [30]): ≥ 256 mg/L; MIC (Pseudomonas aeruginosa [31]): 32 mg/L; MIC (Pseudomonas aeruginosa [32]): 16 mg/L; MIC (Pseudomonas aeruginosa [33]): ≥ 256 mg/L; MIC (Pseudomonas aeruginosa [34]): 64 mg/L; MIC (Pseudomonas aeruginosa [35]): 16 mg/L; MIC (Pseudomonas aeruginosa [36]): 6 mg/L

— ChEMBL document CHEMBL1649285, “In vivo efficacy of 1- and 2-gram human simulated prolonged infusions of doripenem against Pseudomonas aeruginosa” (Antimicrob Agents Chemother, 2009)
